Laboratory results: article PMC4891657, “Orexin 2 Receptor Antagonism is Sufficient to Promote NREM and REM Sleep from Mouse to Man” (Scientific Reports, 2016)
Values joined by “and” are separate entries in the source; they are usually repeats but may differ in a detail not shown here. Identical values can stand only once.

Key:
[1] = tested on: sleep/wake stages; assay: Polysomnography in telemetered Sprague-Dawley rats; assay type: in vivo, rat
Procedure: MK-1064 promoted both REM and NREM sleep in telemetered rats in a time-of-day-dependent manner.
Figure 2 MK-1064 dose-dependently promotes both NREM and REM sleep during the active phase in rats. Mean time in active wake, light sleep (LS), SWS, and REM sleep in adult Sprague-Dawley rats monitored for 2 hours post-dose. MK-1064 (5, 10, or 20 mg/kg) or vehicle (20% vitamin E TPGS, orally) was administered in a balanced crossover design such that each animal received drug and vehicle treatments (7 consecutive days). […] Mean within-subject change relative to vehicle ± SEM is shown (*, ***p < 0.05 < 0.001, respectively; one sample t-test for repeated measures compared with vehicle).
The mean time spent in sleep stages was determined in radio-telemetry–implanted mice, rats, and dogs, as described previously. Continuous PSG recordings were performed following oral MK-1064 or vehicle (20% vitamin E d-alpha tocopheryl polyethylene glycol 1000 succinate [TPGS]) administration. In rodents, electrocorticogram (ECoG) and electromyogram (EMG) and locomotor activity measured via radio-telemetry were scored in 10 second epochs to define light sleep (LS; no movement, moderate EMG tone, theta with <50% delta ECoG [0.5–4 Hz]), slow wave sleep (SWS; no gross movement, reduced EMG, >50% delta ECoG) and rapid eye movement sleep (REM; no movement, little to no EMG activity, primarily theta ECoG [4–7 Hz] activity)[42]. Scored data were then grouped and compiled according to condition (vehicle or compound treatment) averaged over the indicated times (30 minutes or 2 hours) and analyzed statistically as previously described[1][14][40][42] (see below). Canine sleep was scored similarly except that electrooculogram (EOG) recordings were used to define and distinguish REM sleep (high frequency EOG, no locomotor, little to no EMG activity, theta ECoG) from non-REM I (NREM I; little to no EOG activity, no movement, moderate EMG tone, <50% delta ECoG) and NREM II sleep (little to no EOG activity, no gross movement, reduced EMG, >50% delta ECoG), and analyzed as described previously.
In adult male Sprague-Dawley rats (600 g, Taconic Farms, Germantown, NY), MK-1064 (5, 10, or 20 mg/kg) or vehicle was administered orally in a balanced crossover design such that each subject received drug and vehicle treatments (7 consecutive days). […] Data were analyzed using within-subject ANOVA to determine main effects and one sample t-test to compare with vehicle.

[2] = molecular target: T1, OX2R (Homo sapiens, UniProt O43614); assay type: in vivo, transgenic rats expressing human Hcrtr2; set-up: from tissue; host or cells: brain tissue lysate of male transgenic rats expressing human Hcrtr2 cDNA under the rat enolase promoter
T1 sequence (O43614 1-444): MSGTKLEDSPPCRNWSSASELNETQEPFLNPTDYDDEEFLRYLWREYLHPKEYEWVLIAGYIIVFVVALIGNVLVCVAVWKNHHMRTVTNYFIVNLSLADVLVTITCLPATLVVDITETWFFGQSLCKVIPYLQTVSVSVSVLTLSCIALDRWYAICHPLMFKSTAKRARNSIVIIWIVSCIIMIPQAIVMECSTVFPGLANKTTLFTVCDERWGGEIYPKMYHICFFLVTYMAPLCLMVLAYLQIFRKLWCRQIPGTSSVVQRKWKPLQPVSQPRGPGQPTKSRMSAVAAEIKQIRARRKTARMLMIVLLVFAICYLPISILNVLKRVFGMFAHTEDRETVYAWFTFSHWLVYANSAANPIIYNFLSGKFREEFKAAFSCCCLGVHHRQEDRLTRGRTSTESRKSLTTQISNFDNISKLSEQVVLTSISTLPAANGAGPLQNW
From the text: OX2R occupancy in transgenic rats expressing human Hcrtr2 cDNA via the rat enolase promoter in radioligand-binding displacement assays have been described previously. […] Normalized curves where the maximum occupancy value was defined as 100% relative to maximal observed plasma were constructed by fitting data to a one-site binding (hyperbola) curve (GraphPad Prism® v. 6.04, San Diego, CA, USA).

[3] = tested on: somnolence / alertness; assay: Karolinska Sleepiness Scale and Bond and Lader VAS in healthy subjects; assay type: in vivo, human; conditions: all single doses greater than 5 mg
Procedure: In the ascending single-dose study, doses of MK-1064 ranging from 5 to 250 mg corresponded with dose-dependent changes in measured plasma levels (Fig. 6a). […] The greatest effects were observed between 1 and 4 hours, and effects greatly diminished 8 hours following treatment, consistent with the time course of plasma concentrations of MK-1064.
Figure 6 MK-1064 dose-dependently promotes somnolence and attenuates arousal in healthy human subjects. (a) Plasma concentration of MK-1064 over time following administration of single doses of MK-1064 5–250 mg. (b) Somnolence, as measured by the KSS, and (c) alertness, as measured by the Bond and Lader VAS, over time following administration of single doses of MK-1064 (5–250 mg) or placebo in healthy human subjects (N = 20).
During each treatment period, blood was collected for PK analysis pre-dose and at time points up to 72 hours post-dose. MK-1064 plasma concentrations were determined by reverse phase high-performance liquid chromatography and detected with tandem mass spectrometry. The lower limit of quantitation was 1 ng/mL and the linear calibration range was 1–1000 ng/mL. PK parameters were calculated with WinNonLin 5.2.1. Values below the assay limit of quantification were indicated with a zero value. […]

[4] = tested on: sleep/wake stages; assay: Polysomnography in telemetered wild-type and OX2R knockout mice; assay type: in vivo, mouse; conditions: 30 mg/kg oral
Procedure: Polysomnography (PSG) responses to MK-1064 (30 mg/kg) were evaluated following oral administration during the late active phase (administered at Zeitgeber time [ZT] 20:00) either in wild-type or OX2R knockout telemetered mice.
(a) The mean time spent in active wake, light sleep (LS), SWS, and REM sleep during 30-min intervals was determined in wild-type (left panel; n = 5) and OX2R knockout (right panel; n = 7) mice following administration of MK-1064 30 mg/kg (open circles) relative to vehicle (20% vitamin E TPGS, orally; closed circles) during the late active phase (ZT: 20:00). Time points at which significant differences exist between vehicle and MK-1064 responses are indicated by grey vertical lines (*, **, ***p < 0.05, 0.01, 0.001, respectively; linear mixed-effects model for repeated measures).
In male wild-type and Hcrtr1 and 2 homozygous, double knockout mice (Taconic Farms, Germantown, NY), MK-1064 or vehicle was administered during the late active phase (ZT: 20:00, 4 hours before lights on). The effect of compound treatment was assessed using a counterbalanced crossover design in which all animals were alternately treated with drug and vehicle daily for 5 consecutive days with a 2-day intervening washout period. In both mice and rats, the mean time in active wake, LS, SWS and REM sleep was determined for each 30-minute interval. The level of significance for the differences between mean time spent in each stage between the vehicle- and compound-treated groups was determined by a linear mixed-effects model for repeated measures applied t-test, and mean within-subject change relative to vehicle over 2 hours following dosing was analyzed using within-subject ANOVA to determine main effects and one sample t-test to identify significant changes relative to vehicle.

[5] = rats, 2 hours following treatment vs vehicle
[6] = wild-type mice, ZT 20:00, vs vehicle

Question: How did the “sleep stage changes, late active phase administration” value ([1]; ZT 23:00, 1 hour prior to inactive period, 20 mg/kg oral) turn out when `COc1ccc(CNC(=O)c2cc(-c3cncc(Cl)c3)cnc2-c2ccccn2)nc1OC` [MK-1064, 5″-chloro-N-[(5,6-dimethoxypyridin-2-yl)methyl]-2,2′:5′, 3″-terpyridine-3′-carbo xamide] was run?
Answer: only SWS reached significance

Question: And the “active wake during the 2 hours following administration” value ([1]; mid-active phase (ZT 17:00), 5, 10 and 20 mg/kg oral, 20 mg/kg significant p < 0.05)?
Answer: dose dependently attenuated active wake

Question: And the “SWS during the 2 hours following administration” value ([1]; mid-active phase, 20 mg/kg oral)?
Answer: increases in SWS

Question: What about the “REM sleep during the 2 hours following administration” value ([1]; mid-active phase, 10 and 20 mg/kg oral) of the same compound?
Answer: increases in REM sleep

Question: What about the “OX2R occupancy at which significant reductions in active wake were observed” value ([2]; in vivo) of the same compound?
Answer: 94% and 97%

Question: And the “OX2R occupancy at which changes in REM sleep occurred” value [2, 5]?
Answer: 94%

Question: And the “OX2R occupancy at which no significant reduction in active wake was observed” value [2, 5]?
Answer: 89%

Question: What about the “OX2R occupancy at which significant SWS changes were induced” value [2, 5] of the same compound?
Answer: 97%

Question: What about the “subject-reported somnolence (KSS) and drowsiness (alertness VAS)” value [3] of the same compound?
Answer: Dose-dependent increases

Question: What about the “changes in wake, SWS and REM in OX2R knockout mice” value ([4]; OX2R knockout mice, ZT 20:00) of the same compound?
Answer: absent

Question: What about the “time following treatment with active wake reduction and significant increases in SWS and REM” value ([4]; wild-type mice, ZT 20:00) of the same compound?
Answer: up to 3.5 hours

Question: And the “REM quantitated over 2 hours” value [4, 6]?
Answer: trend toward an increase

Question: And the “changes in wake and SWS quantitated over 2 hours” value [4, 6]?
Answer: reached significance
